Experimental data from the Kinase Knowledgebase extract (Sharma et al. 2016).

Tests used:
[1] = target: CDK2 (UniProt P24941); experiment: Enzyme Assay
[2] = target: CDK2 (UniProt P24941); experiment: Enzyme Assay; remark: listed apart in the source

| SMILES | IC50 [1] | IC50 [2] |
| --- | --- | --- |
| O=C(Nc1cccc2c1C(=O)c1c(-c3ccc(CN4CCN(c5cccc(C(F)(F)F)c5)CC4)cc3)n[nH]c1-2)NN1CCOCC1 | – | < 100 nM |
| CN1CCN(CCOc2ccc(-c3n[nH]c4c3C(=O)c3c(NC(=O)NN5CCN(C)CC5)cccc3-4)c(F)c2)CC1 | – | < 100 nM |
| O=C(Nc1cccc2c1C(=O)c1c-2n[nH]c1-c1ccc(OCC(=O)N2CCOCC2)cc1)NN1CCOCC1 | – | < 100 nM |
| O=C(Nc1cccc2c1C(=O)c1c-2n[nH]c1-c1ccc(S(=O)(=O)N2CCNCC2)cc1)NN1CCOCC1 | – | < 100 nM |
| O=C(Nc1cccc2c1C(=O)c1c(-c3ccc(CNCCOCCO)cc3)n[nH]c1-2)NN1CCOCC1 | – | < 100 nM |
| CN1CCN(NC(=O)Nc2cccc3c2C(=O)c2c-3n[nH]c2-c2ccc(OCCN3CCCC3)cc2)CC1 | < 100 nM | < 100 nM |
| O=C(Nc1cccc2c1C(=O)c1c-2n[nH]c1-c1ccc(OCCN2CCOCC2)cc1)NN1CCOCC1 | – | < 100 nM |
| COc1cc(-c2[nH]nc3c2C(=O)c2c(NC(=O)NN4CCOCC4)cccc2-3)ccc1OCCN1CCCC1 | – | < 100 nM |
| CN1CCN(NC(=O)Nc2cccc3c2C(=O)c2c-3n[nH]c2-c2ccc(OCCN3CCC[C@H]3CO)cc2)CC1 | – | < 100 nM |
| Cc1cc(-c2[nH]nc3c2C(=O)c2c(NC(=O)NN4CCN(C)CC4)cccc2-3)ccc1OCCN1CCN(C(C)C)CC1 | – | < 100 nM |
| CN1CCN(NC(=O)Nc2cccc3c2C(=O)c2c(-c4ccc(OCCN5CCCC5)cc4F)n[nH]c2-3)CC1 | – | < 100 nM |
| Cc1noc(COc2ccc(-c3[nH]nc4c3C(=O)c3c(NC(=O)NN5CCN(C)CC5)cccc3-4)cc2)n1 | – | < 100 nM |
| CC(C)c1nn(-c2c(Cl)cc(Cl)cc2Cl)c2nc(Cc3ccc(OCCN4CCOCC4)cc3)[nH]c(=O)c12 | < 100 nM | < 100 nM |
| CC(C)c1nn(-c2c(Cl)cccc2Cl)c2nc(Cc3ccc(O)c(CN4CCOCC4)c3)[nH]c(=O)c12 | – | < 100 nM |
| O=C(Nc1cccc2c1C(=O)c1c-2n[nH]c1-c1ccc(OCCN(CCO)CCO)cc1)NN1CCOCC1 | < 100 nM | < 100 nM |
| CC(C)c1nn(-c2c(Cl)cccc2Cl)c2nc(Cc3ccc(OCCO)cc3)[nH]c(=O)c12 | – | < 100 nM |
| CCCN(CCOc1ccc(-c2[nH]nc3c2C(=O)c2c(NC(=O)NN4CCOCC4)cccc2-3)cc1)CC1CC1 | < 100 nM | < 100 nM |
| Cc1cc(OCCn2cccn2)ccc1-c1[nH]nc2c1C(=O)c1c(NC(=O)NN3CCN(C)CC3)cccc1-2 | – | < 100 nM |
| CC(C)c1nn(-c2c(Cl)cc(Cl)cc2Cl)c2nc(Cc3ccc(NS(=O)(=O)CCCN4CCCCC4)cc3)[nH]c(=O)c12 | – | < 100 nM |
| CC(C)N1CCN(Cc2cc(-c3[nH]nc4c3C(=O)c3c(NC(=O)NN5CCOCC5)cccc3-4)ccc2O)CC1 | – | < 100 nM |
| Cc1cc(OCCN2CCCN(C)CC2)ccc1-c1[nH]nc2c1C(=O)c1c(NC(=O)NN3CCN(C)CC3)cccc1-2 | – | < 100 nM |
| O=C(Nc1cccc2c1C(=O)c1c(-c3ccc(CN4CCN(CCO)CC4)cc3)n[nH]c1-2)NN1CCOCC1 | – | < 100 nM |
| O=C(Nc1cccc2c1C(=O)c1c-2n[nH]c1-c1ccc(OCCN2CCCC2)cc1)NN1CCOCC1 | < 100 nM | < 100 nM |
| COCCOc1ccc(Cc2nc3c(c(C(C)C)nn3-c3c(Cl)cccc3Cl)c(=O)[nH]2)cc1 | – | < 100 nM |
| CN1CCN(NC(=O)Nc2cccc3c2C(=O)c2c-3n[nH]c2-c2ccc(OCCN(CCO)CCO)cc2)CC1 | – | < 100 nM |

Second part, the compound after the results:

| IC50 [1] | IC50 [2] | SMILES |
| --- | --- | --- |
| < 100 nM | < 10 nM | CC(C)c1nn(-c2c(Cl)cccc2Cl)c2nc(Cc3ccc(OP(=O)(O)O)cc3)[nH]c(=O)c12 |
| < 100 nM | < 100 nM | CC(C)c1nn(-c2c(Cl)cc(Cl)cc2Cl)c2nc(Cc3ccc(NS(=O)(=O)CCCN4CCOCC4)cc3)[nH]c(=O)c12 |
| < 100 nM | < 100 nM | CC(C)c1nn(-c2c(Cl)cccc2Cl)c2nc(Cc3ccc(O)c(CN4CCN(C(C)C)CC4)c3)[nH]c(=O)c12 |
| < 100 nM | < 10 nM | CN1CCN(NC(=O)Nc2cccc3c2C(=O)c2c-3n[nH]c2-c2ccc(OCCN3CCOCC3)cc2)CC1 |
| – | < 100 nM | Cc1cc(OCCN2CCN(C(C)C)CC2)ccc1-c1[nH]nc2c1C(=O)c1c(NC(=O)NN3CCN(C)CC3)cccc1-2 |
| – | < 10 nM | CC(C)c1nn(-c2c(Cl)cc(S(N)(=O)=O)cc2Cl)c2nc(Cc3ccc(OCCN4CCOCC4)cc3)[nH]c(=O)c12 |
| – | < 100 nM | CN(C)C(=O)CN1CCN(NC(=O)Nc2cccc3c2C(=O)c2c-3n[nH]c2-c2ccc(OCCN3CCCC3)cc2)CC1 |
| – | < 100 nM | CC(C)c1nn(-c2c(Cl)cccc2Cl)c2nc(Cc3ccc(C(=O)NOCCN4CCOCC4)cc3)[nH]c(=O)c12 |
| – | < 10 nM | CC(C)N1CCN(NC(=O)Nc2cccc3c2C(=O)c2c-3n[nH]c2-c2ccc(OCCN3CCCC3)cc2)CC1 |
| – | < 10 nM | O=C(O)COc1ccc(-c2n[nH]c3c2C(=O)c2c(NC(=O)NN4CCOCC4)cccc2-3)cc1 |
| – | < 10 nM | CC(C)N1CCN(CCOc2ccc(-c3n[nH]c4c3C(=O)c3c(NC(=O)NN5CCOCC5)cccc3-4)cc2F)CC1 |
| – | < 10 nM | CN(C)C(=O)COc1ccc(-c2[nH]nc3c2C(=O)c2c(NC(=O)NN4CCOCC4)cccc2-3)cc1 |
| < 10 nM | < 10 nM | CC(C)N1CCN(CCOc2ccc(-c3[nH]nc4c3C(=O)c3c(NC(=O)NN5CCOCC5)cccc3-4)cc2)CC1 |
| – | < 10 nM | Cc1cc(OCCCN2CCN(C(C)C)CC2)ccc1-c1[nH]nc2c1C(=O)c1c(NC(=O)NN3CCOCC3)cccc1-2 |
| – | < 10 nM | Cc1nc(Cc2nc3c(c(C(C)C)nn3-c3c(Cl)cccc3Cl)c(=O)[nH]2)cs1 |
